Results published in patent US12497642B2, “Incorporation of unnatural nucleotides and methods of use in vivo thereof” (THE SCRIPPS RESEARCH INSTITUTE, priority 2017, dated 2025).

Experiments:
[1] = system: semi-synthetic organism (SSO) (strain YZ3); assay: Replication and UBP retention in vivo in the semi-synthetic organism (streptavidin biotin shift, PAGE), Example 1; assay type: cell-based, Escherichia coli; conditions: for UBP retention in vivo, in words: dTPT3TP analog paired with dNaMTP, discussion
Procedure: All bacteria were cultured in 100 μL of liquid 2×YT media (casein peptone 16 g/L, yeast extract 10 g/L, NaCl 5 g/L) supplemented with potassium phosphate (50 mM, pH 7) in 96-well microwell plates. When noted, antibiotics were used at the following concentrations: chloramphenicol, 5 μg/mL; ampicillin, 100 μg/mL. Cell growth, indicated as OD600, was measured using a Perkin Elmer EnVision 2103 Multilabel Reader with a 590/20 nm filter. Unless otherwise stated, molecular biology reagents were purchased from New England Biolabs (Ipswich, MA) and were used according to the manufacturer's protocols. As necessary, purification of nucleic acids was accomplished by micro-elution columns (Zymo Research Corp; Irvine, CA). All natural oligonucleotides were purchased from IDT (San Diego, CA), and oligonucleotides containing dNaM were synthesized by Biosearch Technologies (Petaluma, CA) with purification by reverse phase cartridge. Unnatural nucleotide triphosphates were prepared, and confirmed by MALDI-TOF and UV/Vis.
Plasmids containing the dNaM-dTPT3 UBP were prepared and used to transform the semi-synthetic organism (SSO). To create a template for in vivo replication assays, Golden Gate assembly was used to construct a derivative of the pUC19 plasmid in which a single dNaM-dTPT3 UBP was embedded within the TK1 sequence ([…]; […]), a context within which the UBP is well replicated in the SSO. Plasmids were then used to transform the SSO (strain YZ3). Following transformation, the SSO was allowed to recover at 37° C. for 1 h in media containing dNaMTP (125 μM) and dTPT3TP (25 μM). Cells were pelleted by centrifugation, resuspended in fresh media lacking unnatural triphosphates, split into 100-μL aliquots and then used to inoculate cultures containing different pairs of unnatural triphosphates at the specified concentrations. When the cell density reached an OD600 of ˜0.7, cells were pelleted and plasmids were recovered and PCR amplified with d5SICSTP and a biotinylated analog of dNaMTP, and UBP retention was determined by comparing the intensity of the streptavidin shifted and unshifted bands via PAGE.

[2] = PCR amplification in vitro (SAR named in the discussion); assay type: biochemical; conditions: paired with any analog

**Q.** Which UBP retention ([1]; context 1, dNaMTP 125 μM, dTPT3TP analog 10 μM) does the source give for `O=c1c2ccccc2ccn1C1CC(O)C(COP(=O)(O)OP(=O)(O)OP(=O)(O)O)O1` (stereo not shown) [dICSTP] here?
**A.** Its UBP retention is “significant retention”.

**Q.** What about the “UBP retention in vivo, in words” value [1] of the same molecule?
**A.** Its value is “reasonable retention in vivo”.

**Q.** What about the “UBP retention in vivo, in words” value ([1]; listed as dICS) of the same molecule?
**A.** The value was “reasonably well, but only at low concentration”.

**Q.** What about the PCR amplification [2] of the same molecule?
**A.** Its PCR amplification is “do not support PCR amplification”.
